Laboratory results from PMC11618438 (ACS Omega, 2024).

What was measured:
[1] = target: T1, MT1 (Homo sapiens, UniProt P48039); assay: β-arrestin2 recruitment BRET assay in HEK293 cells; format: cell-based; conditions: for EC50: hMT1 HEK293 cells, BRET; for effect on ß-arrestin recruitment: Figure S2C
[2] = target: T1, MT1; assay: ERK activation; format: cell-based; conditions: for EC50: hMT1 cells, 5 min stimulation
[3] = target: T1, MT1; assay: 2-[125I]-iodomelatonin competition binding assay, membranes of HEK293 cells; conditions: for Ki: 2-[125I]MLT binding assay, hMT1 stably expressed in HEK293 cells; for drop in binding affinity: MT1, relative to 19c
[4] = target: T1, MT1; assay: cAMP accumulation assay, forskolin-stimulated HEK293 cells; format: cell-based; conditions: for EC50: hMT1 HEK293 cells, 1 μM forskolin
[5] = target: T2, human ERα (Homo sapiens, UniProt P03372); assay: cell-based
T2 sequence (P03372 1-595): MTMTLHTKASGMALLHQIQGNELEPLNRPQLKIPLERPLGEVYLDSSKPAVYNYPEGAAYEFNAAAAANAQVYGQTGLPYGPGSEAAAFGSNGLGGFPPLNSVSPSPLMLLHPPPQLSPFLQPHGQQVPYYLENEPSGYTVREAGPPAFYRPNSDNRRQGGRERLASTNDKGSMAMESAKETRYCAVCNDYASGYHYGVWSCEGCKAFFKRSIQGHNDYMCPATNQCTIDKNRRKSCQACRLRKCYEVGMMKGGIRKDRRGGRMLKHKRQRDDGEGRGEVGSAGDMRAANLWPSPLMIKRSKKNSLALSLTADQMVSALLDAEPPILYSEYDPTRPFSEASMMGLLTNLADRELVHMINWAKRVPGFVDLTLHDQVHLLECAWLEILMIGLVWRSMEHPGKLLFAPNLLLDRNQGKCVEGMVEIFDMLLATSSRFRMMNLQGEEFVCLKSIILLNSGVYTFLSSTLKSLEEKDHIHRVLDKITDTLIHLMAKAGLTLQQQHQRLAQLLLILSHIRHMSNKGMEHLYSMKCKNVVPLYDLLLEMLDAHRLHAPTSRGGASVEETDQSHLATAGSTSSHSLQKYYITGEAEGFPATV

[6] = test system: MDA-MB-231; assay: Cell survival by MTT assay, MDA-MB-231; format: cell-based; conditions: IC50 MLT+TAM versus IC50 compound
[7] = test system: human MT1 receptors expressed in CHO cells; conditions: [125I]-iodomelatonin; cited from earlier work
[8] = test system: HT-1080; assay: Cell survival by MTT assay, HT-1080; format: cell-based; conditions: IC50 MLT+TAM versus IC50 compound
[9] = pEC50 ± S.E.M., ß-arrestin recruitment
[10] = pEC50 ± S.E.M., cAMP accumulation

T1 sequence (P48039 whole entry): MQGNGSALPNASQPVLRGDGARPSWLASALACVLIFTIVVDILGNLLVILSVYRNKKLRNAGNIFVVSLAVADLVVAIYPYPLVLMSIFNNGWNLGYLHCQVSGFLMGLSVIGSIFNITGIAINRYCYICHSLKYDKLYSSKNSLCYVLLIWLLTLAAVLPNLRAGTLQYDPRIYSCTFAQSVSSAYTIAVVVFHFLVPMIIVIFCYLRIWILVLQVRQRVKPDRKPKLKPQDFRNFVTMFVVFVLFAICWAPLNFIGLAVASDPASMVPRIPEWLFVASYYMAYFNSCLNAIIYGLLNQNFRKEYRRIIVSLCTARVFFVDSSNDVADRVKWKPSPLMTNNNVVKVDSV

| EC50 ([1]; EC50, ß-arrestin recruitment) [nM] | EC50 [1, 9] [nM] | EC50 ([2]; EC50, ERK activation) [nM] | EC50 ([2]; pEC50 ± S.E.M., ERK activation) [nM] | Ki ([3]; Ki) [nM] | Ki ([3]; pKi ± S.E.M.) [nM] | EC50 ([4]; EC50, cAMP accumulation) [nM] | EC50 [4, 10] [nM] | effect on ß-arrestin recruitment [1] | effect on ERK activation ([2]; cells expressing MT1) | IC50 [5] [nM] | drop in binding affinity [3] | right shift of cAMP EC50 compared to Ki ([4]; MT1) [logs] | Compound | sensitization versus combined melatonin and tamoxifen treatment [6] [fold] | affinity, competition binding [7] [nM] | sensitization versus combined melatonin and tamoxifen treatment [8] [fold] |
| --- | --- | --- | --- | --- | --- | --- | --- | --- | --- | --- | --- | --- | --- | --- | --- | --- |
| 999 | 955 | 16 | 13.8 | 22 | 20 | 987 | 871 |  |  |  |  |  | CC/C(=C(\c1ccccc1)c1ccc(OCCN(C)CCCCCC(=O)NCCCOc2ccc3[nH]cc(CCNC(C)=O)c3c2)cc1)c1ccccc1 [16b, (Z)-N-(3-((3-(2-Acetamidoethyl)-1H-indol-5-yl)oxy)propyl)-6-((2-(4-(1,2-diphenylbut-1-en-1-yl)phenoxy)ethyl)(methyl)amino)hexanamide] |  |  |  |
|  | 977 |  |  | > 10000 |  | > 10000 | 8910 | no effect | no effect | ~100 | > 1,000 fold |  | CC/C(=C(\c1ccccc1)c1ccc(OCCN(C)C(=O)CCCCOc2ccc3[nH]cc(CCNC(C)=O)c3c2)cc1)c1ccccc1 [19a, (Z)-5-((3-(2-Acetamidoethyl)-1H-indol-5-yl)oxy)-N-(2-(4-(1,2-diphenylbut-1-en-1-yl)phenoxy)ethyl)-N-methylpentanamide] | 3.0 |  |  |
| 2230 | 1070 | 161 | 61.7 | 2.8 | 2.63 |  | 209 |  |  | ~100 |  | 2 | CC/C(=C(\c1ccccc1)c1ccc(OCCN(C)C(=O)CCCCCCOc2ccc3[nH]cc(CCNC(C)=O)c3c2)cc1)c1ccccc1 [19c, (Z)-7-((3-(2-Acetamidoethyl)-1H-indol-5-yl)oxy)-N-(2-(4-(1,2-diphenylbut-1-en-1-yl)phenoxy)ethyl)-N-methylheptanamide] |  |  |  |
|  |  |  |  |  |  |  |  |  |  |  |  |  | COc1ccc2[nH]cc(CCNC(C)=O)c2c1 [MLT, melatonin] |  | 8.6 |  |
| 4660 | 3890 | 178 | 120 | 3150 | 2950 | 389 | 372 |  |  |  | > 1,000 fold |  | CC/C(=C(\c1ccccc1)c1ccc(OCCN(C)C(=O)CCCCCOc2ccc3[nH]cc(CCNC(C)=O)c3c2)cc1)c1ccccc1 [compound 19b, (Z)-6-((3-(2-Acetamidoethyl)-1H-indol-5-yl)oxy)-N-(2-(4-(1,2-diphenylbut-1-en-1-yl)phenoxy)ethyl)-N-methylhexanamide] |  |  |  |
| 197 | 138 | 36 | 28.2 | 6.5 | 6.17 | 74.3 | 63.1 | clear partial effect |  |  |  |  | CC/C(=C(\c1ccccc1)c1ccc(OCCN(C)CCOCCOCCOc2ccc3[nH]cc(CCNC(C)=O)c3c2)cc1)c1ccccc1 [compound 21, (Z)-N-(2-(5-(2-(2-(2-((2-(4-(1,2-Diphenylbut-1-en-1-yl)phenoxy)ethyl)(methyl)amino)ethoxy)ethoxy)ethoxy)-1H-indol-3-yl)ethyl)acetamide] |  |  | 3.6 |
